Source: patent publication US10968200B2, “Salts of an LSD1 inhibitor and processes for preparing the same” (priority 2018, dated 2021)
Counter-ions that a name gives are not always drawn. Like-named read-outs stand apart in the source and are kept apart here.

Experiments:
[1] = Solubility measurement of Compound 1 di-HCl in various solvents; type: physicochemical; details: organic solvent or mixture, thermodynamic from solid; for solubility at 36 h: 25 °C, 25±1° C., agitated 36 h; for solubility at 24 h: 50 °C, 50±1° C., agitated 24 h
Protocol: The solubility of Compound 1 di-HCl was measured at 25±1° C. and 50±1° C. according to the following procedures.
Compound 1 di-HCl was added to 2 mL of a solvent listed in Table 3 at 25±1° C. until the solution became cloudy. Another 10 mg of Compound 1 di-HCl was then added. The mixture was agitated at 25±1° C. for 36 h. The supernatant was filtered using a syringe filter. The saturated solution was pipetted into an HPLC vial, which was diluted with acetonitrile. The solubility of Compound 1 di-HCl was calculated for each solvent.
Compound 1 di-HCl was added to 2 mL of a solvent listed in Table 3 at 50±1° C. until the solution became cloudy. Another 20-25 mg of Compound 1 di-HCl was then added. The mixture was agitated at 50±1° C. for 24 h. The supernatant was filtered using a warmed syringe filter at 50±1° C. The saturated solution was pipetted into an HPLC vial, which was diluted with acetonitrile. The solubility of Compound 1 di-HCl was calculated for each solvent.

[2] = as above; type: physicochemical; details: thermodynamic from solid; for solubility: by vision; for solubility at 24 h: agitated 24 h

N#CCC1(N2CCC(N[C@@H]3C[C@H]3c3ccccc3)CC2)CN(S(N)(=O)=O)C1 [Compound 1 di-HCl, 3-(cyanomethyl)-3-(4-{[(1R,2S)-2-phenylcyclopropyl]amino}piperidin-1-yl)azetidine-1-sulfonamide dihydrochloride]
solubility at 36 h ([1]; solvent 2-Methoxyethanol): 45900 µg/mL
solubility at 36 h ([1]; solvent Acetone): 3490 µg/mL
solubility at 36 h ([1]; solvent IPA): 1310 µg/mL
solubility at 36 h ([1]; solvent MeCN): 610 µg/mL
solubility at 36 h ([1]; solvent Methanol): 32300 µg/mL
solubility at 36 h ([1]; solvent n-BuOH): 1310 µg/mL
solubility at 24 h ([1]; solvent 1,4-Dioxane): 310 µg/mL
solubility at 24 h ([1]; solvent 1-Propanol): 5210 µg/mL
solubility at 24 h ([1]; solvent Dichloromethane): 60 µg/mL
solubility at 24 h ([1]; solvent EtOAc): 30 µg/mL
solubility at 24 h ([1]; solvent EtOH): 3630 µg/mL
solubility at 24 h ([1]; solvent Ethyl formate): 50 µg/mL
solubility at 24 h ([1]; solvent MEK): 160 µg/mL
solubility at 24 h ([1]; solvent MIBK): 130 µg/mL
solubility at 24 h ([1]; solvent MeCN): 6290 µg/mL
solubility at 24 h ([1]; solvent THF): 90 µg/mL
solubility at 36 h ([2]; 25 °C, organic solvent or mixture, solvent 1,4-Dioxane, 25±1° C., agitated 36 h): 200 µg/mL
solubility at 36 h ([2]; 25 °C, organic solvent or mixture, solvent 1-Propanol, 25±1° C., agitated 36 h): 4600 µg/mL
solubility at 36 h ([2]; 25 °C, organic solvent or mixture, solvent 5% Water in ACN, 25±1° C.): > 50000 µg/mL
solubility ([2]; 25 °C, organic solvent or mixture, solvent 5% Water in MeOH, 25±1° C., read-out: Solubility at 25° C.): > 50000 µg/mL
solubility ([2]; 25 °C, organic solvent or mixture, solvent ACN/water (9:1), 25±1° C., read-out: Solubility at 25° C.): > 50000 µg/mL
solubility ([2]; 25 °C, organic solvent or mixture, solvent ACN:Water (4:1), 25±1° C., read-out: Solubility at 25° C.): > 50000 µg/mL
solubility ([2]; 25 °C, organic solvent or mixture, solvent Chloroform, 25±1° C., read-out: Solubility at 25° C.): > 50000 µg/mL
solubility ([2]; 25 °C, organic solvent or mixture, solvent DMF, 25±1° C., read-out: Solubility at 25° C.): > 50000 µg/mL
solubility ([2]; 25 °C, organic solvent or mixture, solvent DMSO, 25±1° C., read-out: Solubility at 25° C.): > 50000 µg/mL
solubility at 36 h ([2]; 25 °C, organic solvent or mixture, solvent EtOH, 25±1° C., agitated 36 h): 3370 µg/mL
solubility at 36 h ([2]; 25 °C, organic solvent or mixture, solvent Ethyl formate, 25±1° C., agitated 36 h): 90 µg/mL
solubility at 36 h ([2]; 25 °C, organic solvent or mixture, solvent MEK, 25±1° C., agitated 36 h): 160 µg/mL
solubility at 36 h ([2]; 25 °C, organic solvent or mixture, solvent MIBK, 25±1° C., agitated 36 h): 60 µg/mL
solubility ([2]; 25 °C, organic solvent or mixture, solvent MeOH/ACN (10 v/3 v), 25±1° C., read-out: Solubility at 25° C.): > 50000 µg/mL
solubility ([2]; 25 °C, organic solvent or mixture, solvent MeOH/Water/ACN (6.0/0.5/1.0), 25±1° C., read-out: Solubility at 25° C.): > 50000 µg/mL
solubility ([2]; 25 °C, organic solvent or mixture, solvent MeOH/water/ACN (6 v/0.5 v/3.5 v), 25±1° C., read-out: Solubility at 25° C.): > 50000 µg/mL
solubility at 36 h ([2]; 25 °C, organic solvent or mixture, solvent MeOH/water/ACN (6 v/1 v/3 v), 25±1° C.): > 50000 µg/mL
solubility ([2]; 25 °C, organic solvent or mixture, solvent MeOH/water/ACN (6 v/1.5 v/3 v), 25±1° C., read-out: Solubility at 25° C.): > 50000 µg/mL
solubility at 36 h ([2]; 25 °C, organic solvent or mixture, solvent THF, 25±1° C., agitated 36 h): 40 µg/mL
solubility ([2]; 25 °C, solvent Water, 25±1° C., read-out: Solubility at 25° C.): > 50000 µg/mL
solubility at 24 h ([2]; 50 °C, organic solvent or mixture, solvent 2-Methoxyethanol, 50±1° C.): 48300 µg/mL
solubility at 24 h ([2]; 50 °C, organic solvent or mixture, solvent 5% Water in ACN, 50±1° C.): 45400 µg/mL
solubility ([2]; 50 °C, organic solvent or mixture, solvent 5% Water in MeOH, 50±1° C., read-out: Solubility at 50° C.): > 50000 µg/mL
solubility ([2]; 50 °C, organic solvent or mixture, solvent ACN/water (9:1), 50±1° C., read-out: Solubility at 50° C.): > 50000 µg/mL
solubility ([2]; 50 °C, organic solvent or mixture, solvent ACN:Water (4:1), 50±1° C., read-out: Solubility at 50° C.): > 50000 µg/mL
solubility at 24 h ([2]; 50 °C, organic solvent or mixture, solvent Acetone, 50±1° C.): 850 µg/mL
solubility ([2]; 50 °C, organic solvent or mixture, solvent Chloroform, 50±1° C., read-out: Solubility at 50° C.): > 50000 µg/mL
solubility ([2]; 50 °C, organic solvent or mixture, solvent DMF, 50±1° C., read-out: Solubility at 50° C.): > 50000 µg/mL
solubility ([2]; 50 °C, organic solvent or mixture, solvent DMSO, 50±1° C., read-out: Solubility at 50° C.): > 50000 µg/mL
solubility at 24 h ([2]; 50 °C, organic solvent or mixture, solvent IPA, 50±1° C.): 1910 µg/mL
solubility ([2]; 50 °C, organic solvent or mixture, solvent MeOH/ACN (10 v/3 v), 50±1° C., read-out: Solubility at 50° C.): > 50000 µg/mL
solubility ([2]; 50 °C, organic solvent or mixture, solvent MeOH/Water/ACN (6.0/0.5/1.0), 50±1° C., read-out: Solubility at 50° C.): > 50000 µg/mL
solubility ([2]; 50 °C, organic solvent or mixture, solvent MeOH/water/ACN (6 v/0.5 v/3.5 v), 50±1° C., read-out: Solubility at 50° C.): > 50000 µg/mL
solubility ([2]; 50 °C, organic solvent or mixture, solvent MeOH/water/ACN (6 v/1 v/3 v), 50±1° C., read-out: Solubility at 50° C.): > 50000 µg/mL
solubility ([2]; 50 °C, organic solvent or mixture, solvent MeOH/water/ACN (6 v/1.5 v/3 v), 50±1° C., read-out: Solubility at 50° C.): > 50000 µg/mL
solubility at 24 h ([2]; 50 °C, organic solvent or mixture, solvent Methanol, 50±1° C.): > 50000 µg/mL
solubility at 24 h ([2]; 50 °C, organic solvent or mixture, solvent n-BuOH, 50±1° C.): 2340 µg/mL
solubility ([2]; 50 °C, solvent Water, 50±1° C., read-out: Solubility at 50° C.): > 50000 µg/mL
solubility ([2]; MeOH/water/ACN (5 v/2 v/3 v), 25 °C, organic solvent or mixture, solvent Me0H/water/ACN (5 v/2 v/3 v), 25±1° C., read-out: Solubility at 25° C.): > 50000 µg/mL
solubility ([2]; MeOH/water/ACN (5 v/2 v/3 v), 50 °C, organic solvent or mixture, solvent Me0H/water/ACN (5 v/2 v/3 v), 50±1° C., read-out: Solubility at 50° C.): > 50000 µg/mL
